Data on eight compounds can be found in US20240327380A1, “BTK INHIBITORS” (BIOGEN MA INC., priority 2020, published 2024).

The target in assay [1] is T1, active BTK enzyme (Upstate 14-552) (Homo sapiens, UniProt Q06187).
T1 construct: purchased Upstate 14-552
Description: In Vitro BTK Kinase Assay: Btk-PolyGAT-LS Assay. It is filed as biochemical. The settings on record: ATP 10 μM, polyGAT 100 nM, BTK 0.25 nM, 30 minutes, TRF readout. In outline: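 Active BTK (0.25 nM) phosphorylates fluorescein-polyGAT peptide (100 nM) with 10 µM ATP in Tris-HCl pH 7.5/MgCl2/DTT buffer, 30 min, EDTA stop. Phosphopeptide detected by TR-FRET with Tb-PY20 antibody after 45 min at room temperature; IC50 from four-parameter fit against DMSO and EDTA controls.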

Assay [2] deals with CD69 expression on CD19+ B cells in human whole blood. Description: In Vitro whole blood CD69 Assay. Type of assay: cell-based. Particulars: B-cell; human heparinized whole blood, anti-human IgD stimulation overnight, percentage of CD19+ B cells expressing CD69, flow cytometry; read-out: IC50. As for the experimental part: In Vitro whole blood CD69 Assay
Human heparinized venous blood from health donors was aliquoted into 96-well plate and “spiked” with serial dilutions of formula I compounds in DMSO or with DMSO without drug. The final concentration of DMSO in all wells was 0.1%. The plate was incubated at 37° C. for 30 min. Drug-containing samples were stimulated with […] mouse anti-human IgD-dextran (1A62) or […] polyclonal rabbit F(ab′)2 anti-human IgD. Phosphate-buffered saline (PBS) was added to the negative control unstimulated sample and the plates were incubated overnight (18 to 22 hours) at 37° C. Cells were stained with fluorochrome-conjugated anti-CD19 and anti-CD69 antibodies. Lyse/fix solution was used to remove red blood cells by hypotonic lysis and to fix the remaining cells, which were then analyzed by flow cytometry. CD19+ B cells were gated and analyzed for CD69 expression. The percentage of B cells expressing CD69 was plotted versus the log 10 of the concentration of the drug and the best-fit curves (variable Hill slope) were generated to obtain the IC50 value.

T1 sequence (Q06187 whole entry): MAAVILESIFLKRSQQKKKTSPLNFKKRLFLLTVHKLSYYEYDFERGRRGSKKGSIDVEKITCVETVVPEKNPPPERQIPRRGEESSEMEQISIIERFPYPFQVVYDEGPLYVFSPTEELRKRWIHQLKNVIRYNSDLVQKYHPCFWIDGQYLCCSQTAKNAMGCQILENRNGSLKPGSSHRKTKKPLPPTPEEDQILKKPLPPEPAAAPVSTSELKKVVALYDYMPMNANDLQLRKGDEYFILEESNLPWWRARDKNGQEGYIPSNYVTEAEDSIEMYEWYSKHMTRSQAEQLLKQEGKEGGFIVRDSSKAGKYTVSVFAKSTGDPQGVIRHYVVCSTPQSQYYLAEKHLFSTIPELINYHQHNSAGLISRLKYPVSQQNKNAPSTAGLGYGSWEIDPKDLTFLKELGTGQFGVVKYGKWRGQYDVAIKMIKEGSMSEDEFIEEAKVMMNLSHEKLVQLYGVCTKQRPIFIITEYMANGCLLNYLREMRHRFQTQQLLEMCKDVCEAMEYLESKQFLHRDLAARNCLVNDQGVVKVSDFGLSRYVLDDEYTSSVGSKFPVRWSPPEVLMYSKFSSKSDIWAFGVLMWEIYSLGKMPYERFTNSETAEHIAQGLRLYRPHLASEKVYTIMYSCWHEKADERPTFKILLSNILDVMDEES

One may read the IC50 as the concentration that inhibits the measured activity by half. Regarding `C=CC(=O)N1CCCC(c2cnccc2-c2ccc(CNC(=O)c3cc(C(C)(C)C)on3)c(C)c2)C1` (stereo not shown) [Example 32, N-(4-(3-(1-acryloylpiperidin-3-yl)pyridin-4-yl)-2-methylbenzyl)-5-(tert-butyl)isoxazole-3-carboxamide], the IC50 in assay [1] is 1 to 10 nM; in assay [2], 100 to 1000 nM.
For `Cc1cc(-c2ccncc2N2CCN(C(=O)/C=C/CN(C)C)CC2)ccc1CNC(=O)c1noc(C(C)(C)C)c1F` [Example 95, (E)-5-(tert-butyl)-N-(4-(3-(4-(4-(dimethylamino)but-2-enoyl)piperazin-1-yl)pyridin-4-yl)-2-methylbenzyl)-4-fluoroisoxazole-3-carboxamide], the IC50 was in the range of 1 to 10 nM in assay [1] and 100 to 1000 nM in assay [2].
As to `C=CC(=O)N(C1CC1)[C@@H]1CCCN(c2cnccc2-c2ccc(CNC(=O)c3cn(C(C)(C)C)nn3)c(C)c2)C1` (stereo in doubt) [Example 17, 1-(tert-butyl)-N-(4-(3-(3-(N-cyclopropylacrylamido)piperidin-1-yl)pyridin-4-yl)-2-methylbenzyl)-1H-1,2,3-triazole-4-carboxamide], the IC50 in assay [1] is at most 1 nM; in assay [2], over 1000 nM.
The corresponding values for `C=CC(=O)N(C)C1CCCN(c2cnccc2-c2ccc(CNC(=O)c3ccc(C(F)(F)F)nc3)c(C)c2)C1` (stereo not shown) [Example 41, N-(2-methyl-4-(3-(3-(N-methylacrylamido)piperidin-1-yl)pyridin-4-yl)benzyl)-6-(trifluoromethyl)nicotinamide] are 1 to 10 nM and over 1000 nM.
As for `C=CC(=O)N(C)C1CCCN(c2cnccc2-c2ccc(CNC(=O)c3nc(C(C)(C)C)no3)c(C)c2F)C1` (stereo not shown) [Example 18, 3-(tert-butyl)-N-(3-fluoro-2-methyl-4-(3-(3-(N-methylacrylamido)piperidin-1-yl)pyridin-4-yl)benzyl)-1,2,4-oxadiazole-5-carboxamide], the IC50 in assay [1] was at most 1 nM; in assay [2], 100 to 1000 nM.
The corresponding values for `C=CC(=O)N(C)C1CCCN(c2cnccc2-c2ccc(CNC(=O)c3cc(C(C)(C)C)no3)c(C)c2)C1` (stereo not shown) [Example 46, 3-(tert-butyl)-N-(2-methyl-4-(3-(3-(N-methylacrylamido)piperidin-1-yl)pyridin-4-yl)benzyl)isoxazole-5-carboxamide] are at most 1 nM and 100 to 1000 nM.
The corresponding values for `CN(C)C/C=C/C(=O)N1CCN(c2cnccc2-c2ccc(CNC(=O)c3noc(C(C)(C)C)n3)c(C(F)(F)F)c2)CC1` [Example 90, (E)-5-(tert-butyl)-N-(4-(3-(4-(4-(dimethylamino)but-2-enoyl)piperazin-1-yl)pyridin-4-yl)-2-(trifluoromethyl)benzyl)-1,2,4-oxadiazole-3-carboxamide] are at most 1 nM and under 100 nM.
The matching figures for `C=CC(=O)N(C)[C@@H]1CCCCN(c2cnccc2-c2ccc(CNC(=O)c3cn(C(C)(C)C)nn3)c(C)c2)C1` [Example 51, (R)-1-(tert-butyl)-N-(2-methyl-4-(3-(3-(N-methylacrylamido)azepan-1-yl)pyridin-4-yl)benzyl)-1H-1,2,3-triazole-4-carboxamide]: at most 1 nM and over 1000 nM.
